# Assay results from patent publication US12545659B2, “IRAK degraders and uses thereof” (Kymera Therapeutics, Inc., priority 2019, dated 2026).
# Like-named read-outs stand apart in the source and are kept apart here.
# Experiments:
# [1] = cn_pd bond
# [2] = the molecule shown is the open-chain precursor; cn_pd bond; 14-membered ring; BrettPhos-Pd-G4/BrettPhos/Cs2CO3; dioxane; 53.8 mM; 60.0 °C
# [3] = target: T1, Aiolos (protein product of gene IKZF3) (Homo sapiens, UniProt Q9UKT9); assay: Aiolos degradation in OCI-LY10 (quantitative immunoblotting); assay type: cell-based; conditions: OCI-LY10 cells, 6 h, immunoblot relative to actin
# T1 construct: endogenous in cells; host or cells: OCI-LY10
# Protocol: (§1) Degradation of Ikaros (protein product of gene IKZF1) and Aiolos (protein product of gene IKZF3) were determined by quantitative immunoblotting as follows. OCI-LY10 cells, 2×10^6 cells/well, were treated with listed concentrations of IRAK4 degraders or control compounds in 6 well plates for 6 h. Cells were collected, washed with cold PBS, lysed in RIPA buffer (Boston BioProducts BP-115D) with protease/phosphatase inhibitor cocktail (Roche 05892791001/Roche 04906837001) and centrifuged at 13000 RPM for 20 min to precipitate insoluble material. The supernatant fraction was diluted in SDS-PAGE loading buffer (Beyotime Bio P0015) and 20 L of each sample was resolved on 4-12% Bis-Tris SDS-PAGE gels (Novex, WG1402BOX). Resolved samples were transferred to nitrocellulose membranes by wet electro-transfer method at […] for 1.5 h. The membrane was blocked with LICOR blocking buffer (LI-COR, 927-50000) for 1 hour, washed three times with TBST (CST #9997S) for 5 minutes each and incubated with primary antibody prepared in block buffer with 0.1% Tween-20 (Solarbio, P8220) at 4° C. overnight. Ikaros antibody was rabbit monoclonal D6N9Y (CST #14859), at 1:1000 dilution. Aiolos antibody was rabbit monoclonal D1C1E (CST #15103), at 1:1000 dilution. Signal was normalized to mouse anti-beta-Actin monoclonal 8H10D10 (CST #3700) used at 1:10,000 dilution. After incubation in primary antibodies, membranes were washed three times with TBST, 5 minutes each, incubated with fluorescently labeled secondary antibodies anti-rabbit IgG (Licor, 926-32211) at 1:5000 dilution; anti-mouse IgG (LI-COR, 926-68070) at 1:5000 dilution, for 1 hour at RT. After incubation in secondary, membranes were washed three times with TBST, 5 minutes each and read on LICOR Odyssey imager. Data was reported as signal for Ikaros or Aiolos relative to signal for actin, and normalized to DMSO-treated control.
# (§2) The letter codes for Ikaros and Aiolos DC50 include: A (<0.05 μM); B (0.05-0.1 μM); C (0.1-0.5 μM); D (0.5-1.0 μM); and E (>1.0 μM).
# [4] = target: T2, IRAK4 (Homo sapiens, UniProt Q9NWZ3); assay: IRAK4 MSD Degradation in OCI-LY10; assay type: cell-based; conditions: OCI-LY10 cells
# T2 construct: endogenous in cells; host or cells: OCI-LY10
# T2 sequence (Q9NWZ3 1-460): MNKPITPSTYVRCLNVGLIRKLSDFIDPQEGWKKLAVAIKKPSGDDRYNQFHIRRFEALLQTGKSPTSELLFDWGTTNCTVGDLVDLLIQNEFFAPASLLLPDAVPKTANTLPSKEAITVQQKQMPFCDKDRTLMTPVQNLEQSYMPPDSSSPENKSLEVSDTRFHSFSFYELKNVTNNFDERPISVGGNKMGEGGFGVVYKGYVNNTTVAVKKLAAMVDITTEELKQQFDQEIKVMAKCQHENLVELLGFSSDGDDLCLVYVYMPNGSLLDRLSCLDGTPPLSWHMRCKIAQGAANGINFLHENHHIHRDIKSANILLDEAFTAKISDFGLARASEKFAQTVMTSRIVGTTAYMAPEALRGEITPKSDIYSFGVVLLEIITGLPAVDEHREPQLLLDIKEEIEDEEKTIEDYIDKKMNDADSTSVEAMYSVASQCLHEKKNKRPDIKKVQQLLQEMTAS
# Method in brief: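 IRAK4 remaining in lysates was read by Meso Scale electrochemiluminescence sandwich (2H9 capture, Y279 plus SULFO-TAG detection). Cells were exposed 4 to 24 h at 37 °C to eight 3-fold dilutions from 1 to 10 μM final top; three-parameter logistic fit gave DC50.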
# [5] = test system: OCI-LY10 cells; assay: CTG Cell Viability Assay - OCI-LY10; assay type: cell-based; conditions: Homo sapiens
# Protocol: (§3) Compound-mediated viability effect on OCI-LY10 or SUDHL-2 was quantitatively determined using the CellTiter-Glo® Luminescent Cell Viability Assay kit from Promega (Catalog number G7570) following manufacturer's recommended procedures. Briefly, OCI-LY10 or SUDHL-2 cells were seeded into 384 well plates (Grenier Bio-One, Catalog number 781080) with a density of 10,000 cells per well. Compounds were then added to the assay plate with final top concentration of 10 M and 1:3 dilution series with total of 9 doses. The final DMSO concentration was normalized to 0.2%. The assay plates were incubated at 37° C. for 4 days under 5% CO2. Then the assay plate was equilibrated at room temperature for 10 minutes. To determine cell viability, L CellTiter Glo reagent was added to each well and the assay plate was centrifuged at 1000 rpm for 30 second, incubated at room temperature for 10 min, and analyzed by detecting the luminescence using a multimode plate reader (EnVision 2105, PerkinElmer). The data was then analyzed by software Prism 7.0 from GraphPad and the dose response curves were fit using a three-parameter logistic equation to calculate IC50.
# [6] = target: T3, Ikaros (protein product of gene IKZF1) (Homo sapiens, UniProt Q13422+Q96SW2); assay: Ikaros degradation in OCI-LY10 (quantitative immunoblotting); assay type: cell-based; conditions: OCI-LY10 cells, 6 h, immunoblot relative to actin; read-out: Ikros Degradation in OCI-LY10: DC50
# T3 construct: endogenous in cells; host or cells: OCI-LY10
# Protocol: as §1, §2
# [7] = test system: SUDHL-2 cells; assay: CTG Cell Viability Assay - SUDHL-2; assay type: cell-based; conditions: Homo sapiens, SU-DHL-2, 96 h
# Protocol: as §3
# [8] = 4 hrs incubation, read-out: IRAK4 degradation in OCI-LY10 at 4 hrs: DC50
# [9] = 24 hrs incubation, read-out: IRAK4 degradation in OCI-LY10 at 24 hrs: DC50
# [10] = 96 h, OCI-LY10 cells, 4 days, CellTiter-Glo, read-out: CTG Cell Viability Assay - OCI-LY10: IC50
# [11] = SUDHL-2 cells, 4 days, CellTiter-Glo, read-out: CTG Cell Viability Assay - SUDHL-2: IC50
# T1 sequence (Q9UKT9 whole entry): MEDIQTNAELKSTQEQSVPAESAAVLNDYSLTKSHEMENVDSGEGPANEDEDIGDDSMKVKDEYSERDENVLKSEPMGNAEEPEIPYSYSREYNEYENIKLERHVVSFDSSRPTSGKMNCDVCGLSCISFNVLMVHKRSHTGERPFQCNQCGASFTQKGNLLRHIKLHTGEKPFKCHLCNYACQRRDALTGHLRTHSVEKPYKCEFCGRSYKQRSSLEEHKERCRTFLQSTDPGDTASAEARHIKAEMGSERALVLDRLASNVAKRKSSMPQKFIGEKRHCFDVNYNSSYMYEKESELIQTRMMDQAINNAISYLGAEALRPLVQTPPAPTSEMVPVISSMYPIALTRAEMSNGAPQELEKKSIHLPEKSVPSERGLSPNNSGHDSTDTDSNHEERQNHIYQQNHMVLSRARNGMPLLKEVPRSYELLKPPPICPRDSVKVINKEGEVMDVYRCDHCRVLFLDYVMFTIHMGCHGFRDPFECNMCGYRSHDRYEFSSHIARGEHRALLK
# T1 sequence (Q96SW2 whole entry, further chain): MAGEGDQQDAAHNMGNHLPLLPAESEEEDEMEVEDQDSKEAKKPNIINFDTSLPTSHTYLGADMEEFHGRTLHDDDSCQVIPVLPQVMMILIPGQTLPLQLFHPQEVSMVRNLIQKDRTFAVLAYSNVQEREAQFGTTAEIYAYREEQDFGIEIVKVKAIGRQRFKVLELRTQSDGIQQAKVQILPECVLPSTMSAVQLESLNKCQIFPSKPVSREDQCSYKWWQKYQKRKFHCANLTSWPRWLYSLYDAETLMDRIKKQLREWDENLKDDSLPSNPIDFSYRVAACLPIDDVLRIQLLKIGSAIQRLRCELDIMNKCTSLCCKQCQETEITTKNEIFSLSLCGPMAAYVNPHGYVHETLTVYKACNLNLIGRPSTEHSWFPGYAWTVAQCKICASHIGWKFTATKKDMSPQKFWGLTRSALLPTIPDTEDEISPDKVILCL
# T1 sequence (Q16531 whole entry partner): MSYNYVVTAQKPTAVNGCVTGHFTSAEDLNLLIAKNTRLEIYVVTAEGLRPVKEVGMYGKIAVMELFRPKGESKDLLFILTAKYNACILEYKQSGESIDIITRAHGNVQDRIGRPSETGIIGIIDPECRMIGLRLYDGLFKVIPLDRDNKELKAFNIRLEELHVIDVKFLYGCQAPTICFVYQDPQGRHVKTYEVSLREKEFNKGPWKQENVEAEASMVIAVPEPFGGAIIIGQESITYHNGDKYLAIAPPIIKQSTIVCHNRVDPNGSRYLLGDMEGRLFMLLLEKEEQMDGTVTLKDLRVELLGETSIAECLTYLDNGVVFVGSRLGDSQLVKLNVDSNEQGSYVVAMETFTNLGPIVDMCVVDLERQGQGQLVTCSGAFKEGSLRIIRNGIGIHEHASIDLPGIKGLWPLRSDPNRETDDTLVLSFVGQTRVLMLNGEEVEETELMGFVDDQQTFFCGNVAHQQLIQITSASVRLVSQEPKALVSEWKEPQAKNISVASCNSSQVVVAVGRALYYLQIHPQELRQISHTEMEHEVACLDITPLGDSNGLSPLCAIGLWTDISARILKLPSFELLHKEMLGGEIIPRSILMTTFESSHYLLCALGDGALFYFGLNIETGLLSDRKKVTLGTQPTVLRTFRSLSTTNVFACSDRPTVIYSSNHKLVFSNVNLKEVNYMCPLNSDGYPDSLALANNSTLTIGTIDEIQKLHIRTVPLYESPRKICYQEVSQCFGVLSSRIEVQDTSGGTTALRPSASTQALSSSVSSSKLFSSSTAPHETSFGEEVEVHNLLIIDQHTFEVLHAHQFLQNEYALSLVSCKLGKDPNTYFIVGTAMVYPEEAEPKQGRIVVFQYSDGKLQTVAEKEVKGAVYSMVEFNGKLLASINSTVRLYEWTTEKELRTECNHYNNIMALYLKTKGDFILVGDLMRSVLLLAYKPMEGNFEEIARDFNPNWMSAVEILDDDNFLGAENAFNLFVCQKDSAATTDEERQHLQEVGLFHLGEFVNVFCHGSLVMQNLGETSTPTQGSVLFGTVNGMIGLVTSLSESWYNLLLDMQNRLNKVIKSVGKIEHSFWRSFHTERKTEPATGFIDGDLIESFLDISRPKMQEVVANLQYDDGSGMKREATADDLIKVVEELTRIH
# T3 sequence (Q13422 whole entry): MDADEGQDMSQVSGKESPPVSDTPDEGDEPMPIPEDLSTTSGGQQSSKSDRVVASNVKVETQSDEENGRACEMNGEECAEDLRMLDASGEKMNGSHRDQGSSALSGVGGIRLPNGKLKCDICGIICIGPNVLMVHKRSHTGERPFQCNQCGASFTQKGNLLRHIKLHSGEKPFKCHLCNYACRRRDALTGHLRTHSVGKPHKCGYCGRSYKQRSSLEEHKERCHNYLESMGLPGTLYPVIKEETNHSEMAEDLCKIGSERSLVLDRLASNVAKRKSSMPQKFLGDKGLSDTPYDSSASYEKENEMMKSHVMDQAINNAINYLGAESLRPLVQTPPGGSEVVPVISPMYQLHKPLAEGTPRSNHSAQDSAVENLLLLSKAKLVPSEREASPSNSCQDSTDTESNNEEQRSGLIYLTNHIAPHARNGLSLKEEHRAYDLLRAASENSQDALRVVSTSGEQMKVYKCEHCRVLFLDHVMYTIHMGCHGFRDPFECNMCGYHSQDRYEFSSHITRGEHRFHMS
# T3 sequence (Q96SW2 whole entry): as the sequence (Q96SW2 whole entry, further chain) above
# T3 sequence (Q16531 whole entry partner): as the sequence (Q16531 whole entry partner) above
molecule,measurement,setting,value
NC(=O)c1cccc(OCCCCCOc2cc3nn(C4CCC(CO)CC4)cc3cc2Br)n1 (stereo not drawn),"ring closure, isolated yield","[1]; the molecule shown is the open-chain precursor, 14-membered ring, BrettPhos Pd G4/Cs2CO3, DMA, 9.4 mM, 80.0 °C",39%
NC(=O)c1cccc(OCCO[C@@H]2CCN(c3cc4nn(C5CCC(CO)CC5)cc4cc3Br)C2)c1 (stereo partly drawn),"ring closure, yield after HPLC",[2],31%
NC(=O)c1cccc(OCCO[C@H]2CCN(c3cc4nn(C5CCC(CO)CC5)cc4cc3Br)C2)c1 (stereo partly drawn),"ring closure, isolated yield","[1]; the molecule shown is the open-chain precursor, 14-membered ring, BrettPhos Pd G3/Cs2CO3, DMA, 100.0 mM, 90.0 °C",33%
"12-((1R,4R)-4-(hydroxymethyl)cyclohexyl)-12H-5,10-dioxa-2-aza-1(5,6)-indazola-4(2,6)-pyridinacyclodecaphan-3-one","ring closure, isolated yield","[1]; 13-membered ring, Pd2(dba)3/Xantphos/Cs2CO3, dioxane, 18.1 mM, 80.0 °C",55%
"COc1cc2nn([C@H]3CC[C@H](CN4CC5(CC(CCNc6cccc7c6C(=O)N(C6CCC(=O)NC6=O)C7=O)C5)C4)CC3)cc2cc1NC(=O)c1cccc(C(C)(F)F)n1 (mixture of isomers) [I-93, 6-(1,1-difluoroethyl)-N-[2-[4-[[6-[2-[[2-(2,6-dioxo-3-piperidyl)-1,3-dioxo-isoindolin-4-yl]amino]ethyl]-2-azaspiro[3.3]heptan-2-yl]methyl]cyclohexyl]-6-methoxy-indazol-5-yl]pyridine-2-carboxamide]",DC50,[3],< 50 nM
same,DC50,[4]; [8],< 50 nM
same,DC50,[4]; [9],50 to 100 nM
same,IC50,[5]; [10],< 0.05 µM
same,DC50,[6],< 50 nM
same,IC50,[7]; [11],0.1 to 0.5 µM
"COc1cc2nn([C@H]3CC[C@H](CN4CCC5(CC4)CC(CCNc4cccc6c4C(=O)N(C4CCC(=O)NC4=O)C6=O)C5)CC3)cc2cc1NC(=O)c1cccc(C(C)(F)F)n1 (stereo partly drawn) [I-63, 6-(1,1-Difluoroethyl)-N-[2-[4-[[2-[2-[[2-(2,6-dioxo-3-piperidyl)-1,3-dioxo-isoindolin-4-yl]amino]ethyl]-7-azaspiro[3.5]nonan-7-yl]methyl]cyclohexyl]-6-methoxy-indazol-5-yl]pyridine-2-carboxamide]",DC50,[3],< 50 nM
same,DC50,[4]; [8],< 50 nM
same,DC50,[4]; [9],50 to 100 nM
same,IC50,"[5]; OCI-Ly10, 96 h, read-out: CTG Cell Viability Assay - OCI-LY10: IC50 (μM)",0.05 to 0.1 µM
same,DC50,[6],< 50 nM
same,IC50,[7]; read-out: CTG Cell Viability Assay - SUDHL-2: IC50 (μM),0.1 to 0.5 µM
"COc1cc2nn([C@H]3CC[C@H](CN4CCC5(CC4)CC(CNc4cccc6c4C(=O)N(C4CCC(=O)NC4=O)C6=O)C5)CC3)cc2cc1NC(=O)c1cccc(C(F)(F)F)n1 (stereo partly drawn) [I-201, N-[2-[4-[[2-[[[2-(2,6-dioxo-3-piperidyl)-1,3-dioxo-isoindolin-4 yl]amino]methyl]-7-azaspiro[3.5]nonan-7-yl]methyl]cyclohexyl]-6-methoxy-indazol-5-yl]-6-(trifluoromethyl)pyridine-2-carboxamide]",DC50,[3],< 50 nM
same,DC50,[4]; [8],< 50 nM
same,DC50,[4]; [9],50 to 100 nM
same,IC50,[5]; [10],< 0.05 µM
same,DC50,[6],50 to 100 nM
same,IC50,[7]; [11],> 1 µM
"COc1cc2nn([C@H]3CC[C@H](CN(C)C4CCN(c5cccc6c5n(C)c(=O)n6C5CCC(=O)NC5=O)CC4)CC3)cc2cc1NC(=O)c1cccc(C(F)(F)F)n1 (stereo partly drawn) [I-247, N-[2-[4-[[[1-[1-(2,6-dioxo-3-piperidyl)-3-methyl-2-oxo-benzimidazol-4-yl]-4-piperidyl]-methyl-amino]methyl]cyclohexyl]-6-methoxy-indazol-5-yl]-6-(trifluoromethyl)pyridine-2-carboxamide]",DC50,[4]; [8],< 50 nM
same,IC50,[5]; [10],> 1 µM
COc1cc2nn([C@H]3CC[C@H](CN4CCC(c5cccc6c5n(C)c(=O)n6C5CCC(=O)NC5=O)CC4)CC3)cc2cc1NC(=O)c1ccncn1 (stereo partly drawn) [I-324],DC50,[4]; [8],< 50 nM
COc1cc2nn([C@H]3CC[C@H](CN4CCC(c5cccc6c5n(C)c(=O)n6C5CCC(=O)NC5=O)CC4)CC3)cc2cc1NC(=O)c1coc(C)n1 (stereo partly drawn) [I-325],DC50,[4]; [8],< 50 nM
"C[C@]1(CN2CCC3(CC2)CC(CCNc2cccc4c2C(=O)N(C2CCC(=O)NC2=O)C4=O)C3)Cc2cc(NC(=O)c3cccc(C(F)(F)F)n3)c(N3CCOCC3)cc2O1 (stereo partly drawn) [I-326, N-[(2R)-2-[[2-[2-[[2-(2,6-dioxo-3-piperidyl)-1,3-dioxo-isoindolin-4-yl]amino]ethyl]-7-azaspiro[3.5]nonan-7-yl]methyl]-2-methyl-6-morpholino-3H-benzofuran-5-yl]-6-(trifluoromethyl)pyridine-2-carboxamide]",DC50,[4]; [9],500 to 1000 nM
COc1cc2nn([C@H]3CC[C@H](CN4CCC(c5cccc6c5n(C)c(=O)n6C5CCC(=O)NC5=O)CC4)CC3)cc2cc1NC(=O)c1cnccn1 (stereo partly drawn) [I-327],DC50,[4]; [8],< 50 nM
COc1cc2nn([C@H]3CC[C@H](CN4CCC(c5cccc6c5n(C)c(=O)n6C5CCC(=O)NC5=O)CC4)CC3)cc2cc1NC(=O)c1cccc(C)n1 (stereo partly drawn) [I-328],DC50,[4]; [8],< 50 nM
COc1cc2nn([C@H]3CC[C@H](CN(C)C4CCN(c5cccc6c5n(C)c(=O)n6C5CCC(=O)NC5=O)CC4)CC3)cc2cc1NC(=O)c1ccccn1 (stereo partly drawn) [I-329],DC50,[4]; [8],< 50 nM
"CN(CCCO[C@H]1C[C@H](Nc2cccc3c2C(=O)N(C2CCC(=O)NC2=O)C3=O)C1)C[C@]1(C)Cc2cc(NC(=O)c3cccc(C(F)(F)F)n3)c(N3CCOCC3)cc2O1 (stereo partly drawn) [I-330, N-[(2S)-2-[[3-[3-[[2-(2,6-dioxo-3-piperidyl)-1,3-dioxo-isoindolin-4-yl]amino]cyclobutoxy]propyl-methyl-amino]methyl]-2-methyl-6-morpholino-3H-benzofuran-5-yl]-6-(trifluoromethyl)pyridine-2-carboxamide]",DC50,[4]; [9],500 to 1000 nM
COc1cc2c(cc1NC(=O)c1cccc(C(F)(F)F)n1)CN([C@H]1CC[C@H](CN3CC4(CC(CCNc5cccc6c5C(=O)N(C5CCC(=O)NC5=O)C6=O)C4)C3)CC1)C2=O (stereo partly drawn) [I-331],DC50,[4]; [9],50 to 100 nM
COc1cc2nn([C@H]3CC[C@H](CN4CC5(CC([C@H](C)CNc6cccc7c6C(=O)N(C6CCC(=O)NC6=O)C7=O)C5)C4)CC3)cc2cc1NC(=O)c1cccc(C(F)(F)F)n1 (stereo partly drawn) [I-332],DC50,[4]; [9],< 50 nM
